Measurements as given in PMC10384862, “[^212Pb]Pb-eSOMA-01: A Promising Radioligand for Targeted Alpha Therapy of Neuroendocrine Tumors” (Pharmaceuticals, 2023).
Where two headings read alike, the source gives them in different places.

How the values were obtained:
[1] = system: H69-tumor xenograft and organs; experiment: Dosimetry (absorbed dose from 212Pb biodistribution, RADAR mouse phantom); type: in vivo; details: based on MTD to the kidneys of 18–23 Gy
Protocol: Single exponential curves were fitted through the organ biodistribution time-activity data using Graphpad Prism. […] The absorbed doses were calculated with the MIRD equation D=∑sms×[TIACs]×S(t←s) , with ms being the source organ mass. A relative biological effect (RBE) of 5 was assumed for the alpha-radiation [47]. The uncertainty propagation in the dosimetry result was calculated [48].

[2] = Biodistribution study with lead-212; type: in vivo, mouse; details: mouse, intravenous; for tissue uptake at 1 h: 1 h p.i.; for tissue uptake at 4 h: 4 h p.i.
Protocol: (§1) Six-week-old male Balb/c nu/nu-specific and opportunistic pathogen-tree (SOPF) mice (Janvier Labs, Le Genest-Saint-Isle, France) were housed in individually ventilated cages, with four mice per cage. Upon arrival, the mice were acclimated for 1 week with access to food and water ad libitum. Mice were subcutaneously inoculated on the right shoulder with NCI-H69 cells (5 × 10^6 cells suspended in 100 μL of 1/3 Matrigel (Corning Inc.; Corning, NY, USA) and 2/3 Hank’s balanced salt solution (Gibco; Paisley, UK). NCI-H69 xenografts were allowed to grow for 3 weeks. Tumor sizes were 391 ± 173 mm^3 at the start of the studies.
(§2) Biodistribution studies were performed to determine tumor and organ uptake of [^212Pb]Pb-DOTAM-TATE, [^212Pb]Pb-eSOMA-01, and [^212Pb]Pb-eSOMA-02. Animals (n = 4 for each time point) were injected intravenously (i.v.) with an average of 100 kBq/0.5 nmol. At 3 selected time points (1, 4, and 24 h) p.i., blood was collected via retro-orbital puncture under isoflurane/O2 anesthesia, after which the mice were sacrificed via cervical dislocation. The tumor and organs of interest (heart, lungs, liver, spleen, stomach, large intestine, small intestine, pancreas, kidneys, muscle, skin, and bone) were excised, washed in PBS, and blotted dry. To confirm receptor specificity of radioligand uptake, mice (n = 3) were co-injected with an excess (25 nmol) of the respective unlabeled peptide, and uptake in the organs of interest was determined at 24 h p.i. To determine the total injected radioactivity per animal, a calibration curve with lead-212 was established using the gamma counter. The percentage of injected dose per gram (% ID/g) was determined for each tissue sample and corrected for both the injected volume and the % ID present at the injection site (the tail).

[3] = system: H69-xenograft Balb/c nu/nu mice; experiment: Biodistribution study with lead-212; type: in vivo, mouse
Protocol: as §1, §2

[4] = In vitro stability in PBS; type: physicochemical; details: ^212Pb-labeled, 37 °C, n = 1
Protocol: The ^203Pb-labeled compounds (~ 2 MBq) or the ^212Pb-labeled compounds (~ 70 kBq) were incubated in 300 µL of phosphate buffered saline (PBS; 0.1 M, pH 7.4) or mouse serum at 37 °C. The stability of the radiolabeled peptides was monitored at 1, 4, and 24 h post-incubation. The samples in PBS were directly analyzed by radio-HPLC without any pretreatment. However, samples of mouse serum were mixed with an equal volume of acetonitrile to precipitate the proteins. The solution was centrifuged twice for 5 min at 13,000 rpm, and the supernatant was analyzed by radio-HPLC using Method 1 for lead-203 and Method 2 for lead-212.

[5] = bone, 100 kBq, n = 4, read-out: Bones uptake
[6] = intestines, 100 kBq, n = 4, read-out: Intestines uptake
[7] = kidneys, 100 kBq, n = 4, read-out: Kidneys uptake
[8] = liver, 100 kBq, n = 4, read-out: Liver uptake
[9] = lungs, 100 kBq, n = 4, read-out: Lungs uptake
[10] = pancreas, 100 kBq, n = 4, read-out: Pancreas uptake
[11] = skin, 100 kBq, n = 4, read-out: Skin uptake
[12] = spleen, 100 kBq, n = 4, read-out: Spleen uptake
[13] = stomach, 100 kBq, n = 4, read-out: Stomach uptake
[14] = tumor, 100 kBq, n = 4, read-out: Tumor uptake

C[C@@H](O)[C@H](NC(=O)[C@@H]1CSSC[C@H](NC(=O)[C@@H](Cc2ccccc2)NC(=O)[C@H]2CC[C@H](CNC(=O)CN3CCN(CC(N)=O)CCN(CC(N)=O)CCN(CC(N)=O)CC3)CC2)C(=O)N[C@@H](Cc2ccc(O)cc2)C(=O)N[C@H](Cc2c[nH]c3ccccc23)C(=O)N[C@@H](CCCCN)C(=O)N[C@@H]([C@@H](C)O)C(=O)N1)C(=O)O [[^212Pb]Pb-eSOMA-01, metal not drawn]
Maximum dose injected into mice [1]: around 0.2 MBq
tissue uptake at 1 h ([2]; blood, 100 kBq, n = 4, read-out: Blood uptake): 1.8 ± 0.37 %ID/g
tissue uptake at 1 h [2, 5]: 1.75 ± 0.44 %ID/g
tissue uptake at 4 h [2, 5]: 0.14 ± 0.09 %ID/g
tissue uptake at 1 h ([2]; heart, 100 kBq, n = 4, read-out: Heart uptake): 0.71 ± 0.33 %ID/g
tissue uptake at 1 h [2, 6]: 2.12 ± 0.39 %ID/g
tissue uptake at 4 h [2, 6]: 0.97 ± 0.12 %ID/g
tissue uptake at 24 h ([2]; intestines, 100 kBq, 24 h p.i., n = 4, read-out: Intestines uptake): 0.23 ± 0.02 %ID/g
tissue uptake at 24 h ([2]; intestines, 24 h block: co-injection of excess (25 nmol) unlabeled peptide, read-out: Intestines uptake): 0.06 ± 0.04 %ID/g
tissue uptake at 1 h [2, 7]: 78.8 ± 12.1 %ID/g
tissue uptake at 4 h [2, 7]: 39.6 ± 4.95 %ID/g
tissue uptake at 24 h ([2]; kidneys, 100 kBq, 24 h p.i., n = 4, read-out: Kidneys uptake): 22 ± 4.06 %ID/g
tissue uptake at 24 h ([2]; kidneys, 24 h block: co-injection of excess (25 nmol) unlabeled peptide, read-out: Kidneys uptake): 17.8 ± 3.85 %ID/g
tissue uptake at 1 h [2, 8]: 4.72 ± 0.53 %ID/g
tissue uptake at 4 h [2, 8]: 2.73 ± 0.49 %ID/g
tissue uptake at 24 h ([2]; liver, 100 kBq, 24 h p.i., n = 4, read-out: Liver uptake): 1.7 ± 0.31 %ID/g
tissue uptake at 24 h ([2]; liver, 24 h block: co-injection of excess (25 nmol) unlabeled peptide, read-out: Liver uptake): 1.07 ± 0.14 %ID/g
tissue uptake at 1 h [2, 9]: 4.05 ± 0.69 %ID/g
tissue uptake at 4 h [2, 9]: 1.38 ± 0.54 %ID/g
tissue uptake at 24 h ([2]; lungs, 100 kBq, 24 h p.i., n = 4, read-out: Lungs uptake): 0.44 ± 0.2 %ID/g
tissue uptake at 1 h ([2]; muscle, 100 kBq, n = 4, read-out: Muscle uptake): 0.22 ± 0.51 %ID/g
tissue uptake at 1 h [2, 10]: 7.86 ± 0.43 %ID/g
tissue uptake at 4 h [2, 10]: 1.72 ± 0.16 %ID/g
tissue uptake at 1 h [2, 11]: 2.23 ± 0.26 %ID/g
tissue uptake at 4 h [2, 11]: 0.17 ± 0.74 %ID/g
tissue uptake at 1 h [2, 12]: 0.98 ± 0.28 %ID/g
tissue uptake at 4 h [2, 12]: 0.23 ± 0.12 %ID/g
tissue uptake at 1 h [2, 13]: 7.08 ± 0.28 %ID/g
tissue uptake at 4 h [2, 13]: 2.51 ± 1.51 %ID/g
tissue uptake at 24 h ([2]; stomach, 100 kBq, 24 h p.i., n = 4, read-out: Stomach uptake): 0.87 ± 0.53 %ID/g
tissue uptake at 24 h ([2]; stomach, 24 h block: co-injection of excess (25 nmol) unlabeled peptide, read-out: Stomach uptake): 0.05 ± 0.01 %ID/g
tissue uptake at 1 h [2, 14]: 16.1 ± 2.31 %ID/g
tissue uptake at 4 h [2, 14]: 10.9 ± 3.81 %ID/g
tissue uptake at 24 h ([2]; tumor, 100 kBq, 24 h p.i., n = 4, read-out: Tumor uptake): 6.83 ± 1.28 %ID/g
More tumor uptake than [212Pb]Pb-eSOMA-02 ([3]; 1 h and 24 h, p < 0.05): 61%
Stomach uptake ([3]; 1 h p.i., n = 4): 7.1 % ID/g
Tumor uptake ([3]; 4 h p.i., n = 4): ~ 9 % ID/g
Tumor uptake ([3]; 24 h p.i., n = 4): ~ 6 % ID/g
Stability in PBS, intact labeled ligand ([4]; 1 h): 99%
Stability in PBS, intact labeled ligand ([4]; 4 h): 97%
Stability in PBS, intact labeled ligand ([4]; 24 h): 94%
